Patent US20050159360A1, “Compositions for the transport of therapeutic molecules into the lungs and use thereof for the treatment of lung cancers and pulmonary diseases” (SYNT:EM, a corporation of France, priority 2002, published 2005)

Assay: Pharmacokinetics/biodistribution of [14C]-tagged doxorubicin and vectorized doxorubicin in plasma and organs after intravenous injection in mice;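 further: radioactivity counted in plasma and organs of mice killed 1 to 60 min post-dose, converted to percentage of product per organ, five animals per time point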
Settings: i.v., 1 mg/kg doxorubicin equivalent, 14C radioactivity
Protocol: About 0.6-1 microcurie was injected per animal. The doxorubicin was tagged with carbon 14 (specific activity 55 mCi/mmol). After the indicated time periods (1, 5, 15, 30, 60 minutes), the mice were sacrificed. The organs (lungs, liver, brain, kidneys, etc.) and the plasma were then collected and counted. The quantity of radioactivity in each organ was then expressed as quantity of product per gram of organ. In this study, five mice were used for each time period.
After injection of the doxorubicin or the vectorized doxorubicin, we compared the pharmacokinetics/biodistribution of the products in the plasma and the different organs. The quantity of each product was expressed as percentage of product per organ.

- Percentage of product in Brain after intravenous injection (time 1 minute): 0.06%
- Percentage of product in Heart after intravenous injection (time 1 minute): 0.58%
- Percentage of product in Kidneys after intravenous injection (time 1 minute): 3.37%
- Percentage of product in Liver after intravenous injection (time 1 minute): 17.81%
- Percentage of product in Lungs after intravenous injection (time 1 minute): 1.30%
- Percentage of product in Plasma after intravenous injection (time 1 minute): 1.84%
- Percentage of product in Brain after intravenous injection (time 5 minutes): 0.03%
- Percentage of product in Heart after intravenous injection (time 5 minutes): 0.52%
- Percentage of product in Kidneys after intravenous injection (time 5 minutes): 5.58%
- Percentage of product in Liver after intravenous injection (time 5 minutes): 23.02%
- Percentage of product in Lungs after intravenous injection (time 5 minutes): 1.24%
- Percentage of product in Plasma after intravenous injection (time 5 minutes): 0.53%
- Percentage of product in Brain after intravenous injection (time 15 minutes): 0.03%
- Percentage of product in Heart after intravenous injection (time 15 minutes): 0.54%
- Percentage of product in Kidneys after intravenous injection (time 15 minutes): 5.24%
- Percentage of product in Liver after intravenous injection (time 15 minutes): 20.22%
- Percentage of product in Lungs after intravenous injection (time 15 minutes): 1.14%
- Percentage of product in Plasma after intravenous injection (time 15 minutes): 0.34%
- Percentage of product in Brain after intravenous injection (time 30 minutes): 0.02%
- Percentage of product in Heart after intravenous injection (time 30 minutes): 0.45%
- Percentage of product in Kidneys after intravenous injection (time 30 minutes): 4.48%
- Percentage of product in Liver after intravenous injection (time 30 minutes): 19.70%
- Percentage of product in Lungs after intravenous injection (time 30 minutes): 1.03%
- Percentage of product in Plasma after intravenous injection (time 30 minutes): 0.19%
- Percentage of product in Brain after intravenous injection (time 60 minutes): 0.02%
- Percentage of product in Heart after intravenous injection (time 60 minutes): 0.36%
- Percentage of product in Kidneys after intravenous injection (time 60 minutes): 2.43%
- Percentage of product in Liver after intravenous injection (time 60 minutes): 17.80%
- Percentage of product in Lungs after intravenous injection (time 60 minutes): 0.85%
- Percentage of product in Plasma after intravenous injection (time 60 minutes): 0.18%
Compound: COc1cccc2c1C(=O)c1c(O)c3c(c(O)c1C2=O)C[C@@](O)(C(=O)CO)C[C@@H]3O[C@H]1C[C@H](N)[C@H](O)[C@H](C)O1 [compound 1, doxorubicin]
